Results reported in patent US20090081197A1 (Palatin Technologies, Inc., priority 2007, published 2009).
Where two headings read alike, the source gives them in different places. Non-standard residues stand in square brackets, D forms with d. Residues, ends and D or L forms follow the SMILES beside them. *: point of attachment. dPhe(4-Cl) = N[C@H](Cc1ccc(Cl)cc1)C(=O)O; Ahp = NCCCCCCC(=O)O; Bn = c1ccc(C*)cc1

Experiments:
[1] = target: T1, MC1-R (Mus musculus, UniProt Q01727); experiment: Competitive inhibition assay using [I^125]-NDP-α-MSH, B-16 mouse melanoma cell membranes; format: binding; conditions: for inhibition at 1 µM: 1 μM test compound, read-out: Inhibition at 1 μM (NDP-α-MSH) In Normal System, MC1-R; for Ki: read-out: Ki (nM) (NDP-α-MSH) In Normal System, MC1-R
T1 construct: B-16 mouse melanoma cells (containing MC1-R); endogenous in cells
Method in brief: (§1)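 Tracer was 0.4 nM for MC3-R and MC5-R, 0.2 nM for MC4-R and 0.1 nM for MC1-R. Bound radioactivity was gamma-counted after filtration; values are triplicate means, with results below 0% reported as 0%.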

[2] = target: T2, MC5-R (Homo sapiens, UniProt P33032); experiment: cAMP functional activity assay in HEK-293 cells; format: cell-based; design: expressed in transfected cells; host or cells: HEK-293; conditions: 1 μM concentration where stated
Protocol: (§2) General method for EC50 determination in functional activity assay. […] Data analysis and EC50 values were determined using nonlinear regression analysis with Prism Graph-Pad software.
(§3) Functional status. The agonist/antagonist status with respect to MC1-R, MC-3R, MC4-R and MC5-R of certain compounds of the invention was determined. Antagonistic activity was determined by measuring the inhibition of α-MSH-induced or NDP-α-MSH-induced cAMP levels following exposure to graded doses of compounds as in the preceding descriptions.

[3] = Penile erection induction in male rats; format: in vivo; conditions: rat, IV
Method in brief: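 Male Sprague-Dawley rats (200-250 g), groups of 4-8, dosed IV or ICV at various doses and observed individually for penile erections. Only statistically relevant increases over vehicle-control mean PEs count as induction; IV responses below 1.0 PEs/rat treated as equivocal, some retested ICV.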

[4] = target: T3, MC4-R (Homo sapiens, UniProt P32245); experiment: cAMP agonist stimulation, high receptor density system (10 ng/mL doxycycline); conditions: for Efficacy/Intrinsic Activity: NDP-α-MSH maximal cAMP = 1.0
[5] = target: T3, MC4-R; experiment: Competitive inhibition assay using [I^125]-NDP-α-MSH, hMC4-R membranes; format: binding; design: host or cells: TREx-293 (HEK-293 stably expressing Tet repressor); conditions: for inhibition at 1 µM: 1 μM test compound, read-out: Inhibition at 1 μM (NDP-α-MSH) In Normal System, MC4-R
Method in brief: as §1

[6] = target: T3, MC4-R; experiment: cAMP agonist stimulation, low receptor density system (0.1 ng/mL doxycycline); conditions: 0.1 ng/mL doxycycline, low receptor density hMC4-R system; NDP-α-MSH maximal cAMP = 1.0
[7] = target: T1, MC1-R; experiment: cAMP functional activity assay in B-16 mouse melanoma cells; format: cell-based; conditions: 1 μM concentration where stated
Protocol: as §2, §3

[8] = target: MC3-R (Homo sapiens, UniProt P41968); experiment: Competitive inhibition assay using [I^125]-NDP-α-MSH, hMC3-R membranes; format: binding; design: expressed in transfected cells; conditions: for inhibition at 1 µM: 1 μM test compound, read-out: Inhibition at 1 μM (NDP-α-MSH) In Normal System, MC3-R
Method in brief: as §1

[9] = target: T2, MC5-R; experiment: Competitive inhibition assay using [I^125]-NDP-α-MSH, hMC5-R membranes; format: binding; design: expressed in transfected cells; conditions: for inhibition at 1 µM: 1 μM test compound, read-out: Inhibition at 1 μM (NDP-α-MSH) In Normal System, MC5-R
Method in brief: as §1

[10] = target: T3, MC4-R; experiment: cAMP functional activity assay in HEK-293 cells, normal system; format: cell-based; design: expressed in transfected cells; host or cells: HEK-293; conditions: for intrinsic activity at MC4-R in a normal system: normal receptor density system, NDP-α-MSH = 1.0; for functional status at MC4-R in cAMP assay: normal system, 1 μM concentration where stated
[11] = IV and IP food intake and body weight change, rats; format: in vivo; conditions: rat, IV, dose not stated; for decrease in body weight: 24 hours
Protocol: IV and IP food intake and body weight change. Change in food intake and body weight was evaluated for selected compounds. Male Sprague-Dawley rats or male C57BL/6 mice were utilized. Animals were individually housed in conventional plexiglass hanging cages and maintained on a controlled 12 hour on/off light cycle. Water and powdered (LabDiet, 5P00 Prolab RMH 3000) or pelleted (Harlan Teklad 2018 18% Protein Rodent Diet) food was provided ad libitum. For 1 week before treatment, 24-hour food intake and body weight change was recorded to assess a baseline for the group during vehicle treatment. The rats were dosed IV with vehicle or selected compounds (0.5-3 mg/kg, and in some cases up to 10 mg/Kg) or dosed intraperitoneally (IP) with vehicle or selected compounds (0.5-10 mg/kg, and in some cases up to 50 mg/kg). Mice were dosed IP. The changes in body weight and food intake for the 24 hour period after dosing were determined. The changes in body weight and food intake for the 48 hour and 72 hour periods after dosing were also measured to determined reversal of changes in body weight and food intake effects back to baseline levels.

[12] = ICV food intake and body weight change; format: in vivo; conditions: rat, 1 nmol, 24 hours
Method in brief: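 Rats fitted with intracerebroventricular cannulas and fed ad libitum got a single ICV dose of vehicle or compound (1-3 nmol). Food intake and body-weight change over the 24 h after dosing were compared with a 1-week vehicle baseline. Values at 48 h and 72 h were also recorded to follow return to baseline.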

[13] = 10 ng/mL doxycycline, high receptor density hMC4-R system

T3 sequence (P32245 whole entry): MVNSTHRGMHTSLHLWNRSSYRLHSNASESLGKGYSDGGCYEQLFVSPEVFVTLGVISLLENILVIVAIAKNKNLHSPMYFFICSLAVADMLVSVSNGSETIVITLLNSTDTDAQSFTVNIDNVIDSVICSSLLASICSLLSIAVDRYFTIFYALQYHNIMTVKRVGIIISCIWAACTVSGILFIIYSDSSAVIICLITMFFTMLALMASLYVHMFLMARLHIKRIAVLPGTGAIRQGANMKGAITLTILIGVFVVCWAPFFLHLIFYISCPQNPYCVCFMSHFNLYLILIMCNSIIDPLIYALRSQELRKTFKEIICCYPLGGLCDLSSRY
T1 sequence (Q01727 whole entry): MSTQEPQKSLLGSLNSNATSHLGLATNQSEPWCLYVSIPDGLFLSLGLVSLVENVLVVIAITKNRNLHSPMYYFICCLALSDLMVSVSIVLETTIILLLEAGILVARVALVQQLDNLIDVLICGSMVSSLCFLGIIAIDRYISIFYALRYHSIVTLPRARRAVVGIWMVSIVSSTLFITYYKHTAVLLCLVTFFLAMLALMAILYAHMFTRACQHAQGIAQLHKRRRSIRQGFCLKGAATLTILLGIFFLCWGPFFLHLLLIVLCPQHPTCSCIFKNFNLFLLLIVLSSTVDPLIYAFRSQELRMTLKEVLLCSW
T2 sequence (P33032 whole entry): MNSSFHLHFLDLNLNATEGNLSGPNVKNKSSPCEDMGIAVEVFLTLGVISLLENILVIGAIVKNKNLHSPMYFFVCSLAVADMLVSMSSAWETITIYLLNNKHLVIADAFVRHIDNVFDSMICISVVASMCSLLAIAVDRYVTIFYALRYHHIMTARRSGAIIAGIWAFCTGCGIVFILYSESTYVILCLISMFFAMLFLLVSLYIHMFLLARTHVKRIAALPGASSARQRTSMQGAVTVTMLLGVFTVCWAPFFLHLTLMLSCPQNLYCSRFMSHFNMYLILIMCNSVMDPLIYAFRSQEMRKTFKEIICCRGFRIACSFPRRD
Chain of MC3-R (P41968 whole entry): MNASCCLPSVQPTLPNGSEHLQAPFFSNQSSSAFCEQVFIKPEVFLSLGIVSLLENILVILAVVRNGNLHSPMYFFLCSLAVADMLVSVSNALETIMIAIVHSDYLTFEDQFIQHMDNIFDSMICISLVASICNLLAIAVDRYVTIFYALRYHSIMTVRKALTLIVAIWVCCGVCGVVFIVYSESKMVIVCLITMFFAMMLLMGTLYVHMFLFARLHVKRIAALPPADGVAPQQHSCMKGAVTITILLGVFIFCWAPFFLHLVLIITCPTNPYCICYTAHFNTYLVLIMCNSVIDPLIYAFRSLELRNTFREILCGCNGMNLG

N=C(N)NCCC[C@H]1C(=O)N(CCc2c[nH]c3ccccc23)CCN1C(=O)[C@H](N)Cc1ccc(Cl)cc1Cl [Example 2, N-(3-{(S)-1-[(R)-2-Amino-3-(2,4-dichloro-phenyl)-propionyl]-4-[2-(1H-indol-3-yl)-ethyl]-3-oxo-piperazin-2-yl}-propyl)-guanidine]
inhibition at 1 µM [1]: 7% | Ki [1]: 1410 nM | functional status at MC5-R in cAMP assay [2]: partial agonist (intrinsic activity between 0.1 (10%) and 0.7 (70%) is classified as a partial agonist) | Penile Erection IV [3]: No | penile erection response ([3]; 0.3 to 3 μg/kg): did not cause penile erection behavior | EC50 [4]: 0.057 µM | Efficacy/Intrinsic Activity [4, 13]: 0.56 | inhibition at 1 µM [5]: 96% | Efficacy/Intrinsic Activity [6]: None | functional status at MC1-R in cAMP assay [7]: partial agonist (intrinsic activity between 0.1 (10%) and 0.7 (70%) is classified as a partial agonist) | inhibition at 1 µM [8]: 57% | inhibition at 1 µM [9]: 35% | intrinsic activity at MC4-R in a normal system [10]: 0.3 | functional status at MC4-R in cAMP assay [10]: partial agonist (intrinsic activity between 0.1 (10%) and 0.7 (70%) is classified as a partial agonist)

N=C(N)NCCC[C@H](NC(=O)[C@@H](Cc1ccc(Cl)cc1)NC(=O)[C@H](COCc1ccccc1)NC(=O)CCCCCCN)C(=O)N[C@@H](Cc1c[nH]c2ccccc12)C(=O)N[C@@H](CC(=O)O)C(=O)N[C@@H](Cc1ccccc1)C(N)=O [Example 14, NH2—(CH2)6—C(═O)-Ser(Bzl)-D-Phe(4-Cl)-Arg-Trp-Asp-Phe-NH2] (H-[Ahp]S(Bn)[dPhe(4-Cl)]RWDF-NH2)
inhibition at 1 µM [1]: 38% | Penile Erection IV [3]: No | penile erection response [3]: no penile erection response | EC50 [4]: 0.141 µM | Efficacy/Intrinsic Activity [4, 13]: 0.64 | inhibition at 1 µM [5]: 99% | 24 hour decrease in food intake [11]: 30% | decrease in body weight [11]: 2% | Efficacy/Intrinsic Activity [6]: None | inhibition at 1 µM [8]: 66% | inhibition at 1 µM [9]: 52% | intrinsic activity at MC4-R in a normal system [10]: 0.5 | functional status at MC4-R in cAMP assay [10]: partial agonist (intrinsic activity between 0.1 (10%) and 0.7 (70%) is classified as a partial agonist) | decrease in body weight [12]: −2% | decrease in food intake [12]: 50%

C[C@H](NC(=O)[C@H](Cc1c[nH]c2ccccc12)NC(=O)[C@H](CCCNC(=N)N)NC(=O)[C@@H](Cc1ccc(Cl)cc1)NC(=O)[C@H](COCc1ccccc1)NC(=O)CCCCCCN)C(N)=O [Example 15, NH2—(CH2)6—C(═O)-Ser(Bzl)-D-Phe(4-Cl)-Arg-Trp-Ala-NH2] (H-[Ahp]S(Bn)[dPhe(4-Cl)]RWA-NH2)
inhibition at 1 µM [1]: 60% | Penile Erection IV [3]: No | penile erection response [3]: no penile erection response | EC50 [4]: 0.055 µM | Efficacy/Intrinsic Activity [4, 13]: 0.67 | inhibition at 1 µM [5]: 100% | 24 hour decrease in food intake [11]: 4% | Efficacy/Intrinsic Activity [6]: None | inhibition at 1 µM [8]: 93% | inhibition at 1 µM [9]: 79% | intrinsic activity at MC4-R in a normal system [10]: less than 0.1 | functional status at MC4-R in cAMP assay [10]: functionally inactive | decrease in body weight [12]: 2% | decrease in food intake [12]: 14%

N=C(N)NCCC[C@H]1C(=O)N2C(CC[C@@H]2COc2ccc3ccccc3c2)N1C(=O)[C@@H](Cc1ccc(Cl)cc1Cl)NC(=O)[C@@H]1CC[C@H](c2ccccc2)N1 (stereo partly drawn) [Example 19, (2S,5R)-5-Phenyl-pyrrolidine-2-carboxylic acid {(R)-1-(2,4-dichloro-benzyl)-2-[(2S,5R)-2-(3-guanidino-propyl)-5-(naphthalen-2-yloxymethyl)-3-oxo-hexahydro-pyrrolo[1,2-a]imidazol-1-yl]-2-oxo-ethyl}-amide]
inhibition at 1 µM [1]: 16% | Ki [1]: 1040 nM | Penile Erection IV [3]: No | penile erection response ([3]; 1 μg/kg): no penile erection response | EC50 [4]: 0.173 µM | Efficacy/Intrinsic Activity [4, 13]: 0.22 | inhibition at 1 µM [5]: 97% | 24 hour decrease in food intake [11]: 1% | decrease in body weight [11]: 2% | Efficacy/Intrinsic Activity [6]: None | inhibition at 1 µM [8]: 43% | inhibition at 1 µM [9]: 86% | functional status at MC4-R in cAMP assay [10]: no intrinsic activity (intrinsic activity below 0.1 (10%) is classified as inactive or having no intrinsic activity) | decrease in body weight [12]: 3% | decrease in food intake [12]: 38%

N-{3-[1-[2(R)-Amino-3-(4-chloro-2-fluoro-phenyl)-propionyl]-5(S)-methyl-4-(2-naphthalen-2-yl-ethyl)-piperazin-2(S)-yl]-propyl}-guanidine [Example 3]
Ki [1]: 109 nM | functional status at MC5-R in cAMP assay [2]: no intrinsic activity (intrinsic activity below 0.1 (10%) is classified as inactive or having no intrinsic activity) | EC50 [4, 13]: 0.061 µM | Efficacy/Intrinsic Activity [4, 13]: 0.26 | Ki ([5]; read-out: Ki (nM) (NDP-α-MSH) In Normal System, MC4-R): 6 nM | Efficacy/Intrinsic Activity [6]: None | functional status at MC1-R in cAMP assay [7]: partial agonist (intrinsic activity between 0.1 (10%) and 0.7 (70%) is classified as a partial agonist) | Ki ([8]; read-out: Ki (nM) (NDP-α-MSH) In Normal System, MC3-R): 186 nM | Ki ([9]; read-out: Ki (nM) (NDP-α-MSH) In Normal System, MC5-R): 204 nM | functional status at MC4-R in cAMP assay [10]: no intrinsic activity (intrinsic activity below 0.1 (10%) is classified as inactive or having no intrinsic activity)
